The values that follow come from patent US20240043427A1 (Gilead Sciences, Inc., priority 2020, published 2024).

In experiment [1] the target is T1, CD73 (Homo sapiens (Human), UniProt P21589). Type of experiment: biochemical. To be noted: 1 mM NaH2PO4 in enzyme buffer, CD73 0.3 nM, AMP 15 uM.
In experiment [2] the target is T1, CD73. The experiment is described as follows: MDA-MB-231 Cell Based CD73 Activity Assay (DMEM). To be noted: MDA-MB-231-GFP cells, DMEM medium with 10% human plasma, 200 uM AMP.

Broadly, the IC50 is the concentration at which inhibition is half-maximal. The low end stands for inhibition by little substance, the high end for a need for much substance. By EC50 is commonly meant the concentration giving half of the maximal effect. A low value points to a more potent agent.

Each structure is given as a SMILES string.

T1 sequence (P21589 27-574): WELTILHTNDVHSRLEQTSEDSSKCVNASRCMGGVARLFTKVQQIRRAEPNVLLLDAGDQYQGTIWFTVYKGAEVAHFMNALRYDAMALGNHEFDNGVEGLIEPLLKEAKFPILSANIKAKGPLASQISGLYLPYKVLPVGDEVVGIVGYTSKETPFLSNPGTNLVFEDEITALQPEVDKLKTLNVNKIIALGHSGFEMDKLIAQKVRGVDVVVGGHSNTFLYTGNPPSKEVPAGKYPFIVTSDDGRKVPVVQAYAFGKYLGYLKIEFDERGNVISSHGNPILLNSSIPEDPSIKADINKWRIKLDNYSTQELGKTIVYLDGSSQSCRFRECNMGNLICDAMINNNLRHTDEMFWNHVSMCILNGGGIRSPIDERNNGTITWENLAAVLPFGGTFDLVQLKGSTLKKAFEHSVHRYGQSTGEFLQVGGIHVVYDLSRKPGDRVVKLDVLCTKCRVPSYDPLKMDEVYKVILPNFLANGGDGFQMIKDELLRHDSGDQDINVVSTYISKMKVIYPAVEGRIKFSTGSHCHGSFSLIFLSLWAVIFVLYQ

Consider `O=c1[nH]cc(-c2cc(N3CCC(C4CC(F)(F)C4)C3)c3nccn3n2)c(=O)[nH]1` (stereo not shown) [Example 578, 5-(8-(3-(3,3-difluorocyclobutyl)pyrrolidin-1-yl)imidazo[1,2-b]pyridazin-6-yl)pyrimidine-2,4(1H,3H)-dione], for which 161 nM corresponded to half-maximal inhibition against CD73 [1] (IC50). For the same molecule, it took 1870 nM to reach a half-maximal effect at CD73 [2] (EC50).

In turn, `O=c1[nH]cc(-c2cc([C@H]3C[C@@H]3c3ccc(Cl)cn3)c3ncc(F)n3n2)c(=O)[nH]1` [Example 584, 5-(8-((1S,2S)-2-(5-chloropyridin-2-yl)cyclopropyl)-3-fluoroimidazo[1,2-b]pyridazin-6-yl)pyrimidine-2,4(1H,3H)-dione] gave an IC50 against CD73 [1] of 0.91 nM. In addition, on CD73 [2], the EC50 came to 2.98 nM.

For the molecule `O=c1[nH]cc(-c2cc([C@H]3C[C@@H]3c3ccc(Cl)cn3)c3nccn3n2)c(=O)[nH]1` [Example 585, 5-(8-((1S,2S)-2-(5-chloropyridin-2-yl)cyclopropyl)imidazo[1,2-b]pyridazin-6-yl)pyrimidine-2,4(1H,3H)-dione], on CD73 [1], the IC50 came to 0.69 nM. For the same molecule, on CD73 [2], the midpoint of the response, the EC50, lay at 1.9 nM.

On CD73 [1], `O=c1[nH]cc(-c2cc([C@H]3C[C@@H]3c3ncc(Cl)cc3F)c3nccn3n2)c(=O)[nH]1` [Example 586, 5-(8-((1S,2S)-2-(5-chloro-3-fluoropyridin-2-yl)cyclopropyl)imidazo[1,2-b]pyridazin-6-yl)pyrimidine-2,4(1H,3H)-dione] gave a half-maximal inhibitory concentration (IC50) of 0.85 nM. The same molecule yielded an EC50 at CD73 [2] of 2.94 nM.

`O=c1[nH]cc(-c2cc(N3CCC4(CCC(F)(F)CC4)C3)c3nccn3n2)c(=O)[nH]1` [Example 587, 5-(8-(8,8-difluoro-2-azaspiro[4.5]decan-2-yl)imidazo[1,2-b]pyridazin-6-yl)pyrimidine-2,4(1H,3H)-dione] displayed an IC50 on CD73 [1] of 23.3 nM. On CD73 [2], the EC50 worked out at 66.1 nM.

As for `O=c1[nH]cc(-c2cc([C@H]3C[C@@H]3c3ncc(Cl)cc3F)c3ncc(F)n3n2)c(=O)[nH]1` [Example 588, 5-(8-((1S,2S)-2-(5-chloro-3-fluoropyridin-2-yl)cyclopropyl)-3-fluoroimidazo[1,2-b]pyridazin-6-yl)pyrimidine-2,4(1H,3H)-dione], half-maximal inhibition at CD73 [1] (IC50) was put at 0.69 nM. Also, at CD73 [2], the concentration for a half-maximal effect (EC50) was 2.33 nM.

In turn, `O=c1[nH]cc(-c2cc(N3CCC(Cn4ccnn4)C3)c3nccn3n2)c(=O)[nH]1` (stereo not shown) [Example 592, 5-(8-(3-((1H-1,2,3-triazol-1-yl)methyl)pyrrolidin-1-yl)imidazo[1,2-b]pyridazin-6-yl)pyrimidine-2,4(1H,3H)-dione] yielded a concentration for half-maximal inhibition (IC50) on CD73 [1] of 96.2 nM. In addition, the half-maximal effective concentration (EC50) on CD73 [2] was 774 nM.

In turn, `C#CCC1CCN(c2cc(-c3c[nH]c(=O)[nH]c3=O)nn3ccnc23)C1` (stereo not shown) [Example 593, 5-(8-(3-(prop-2-yn-1-yl)pyrrolidin-1-yl)imidazo[1,2-b]pyridazin-6-yl)pyrimidine-2,4(1H,3H)-dione] showed an IC50 against CD73 [1] of 7.24 nM. On CD73 [2], this molecule returned an EC50 of 33 nM.

Regarding `O=c1[nH]cc(-c2cc([C@H]3C[C@@H]3c3ccc4cnn(CC(F)(F)F)c4c3F)c3nccn3n2)c(=O)[nH]1` [Example 594, 5-(8-((1S,2S)-2-(7-fluoro-1-(2,2,2-trifluoroethyl)-1H-indazol-6-yl)cyclopropyl)imidazo[1,2-b]pyridazin-6-yl)pyrimidine-2,4(1H,3H)-dione], the midpoint of inhibition on CD73 [1], the IC50, lay at 0.58 nM. This molecule yielded an EC50 on CD73 [2] of 0.12 nM.

On to `O=c1[nH]cc(-c2cc([C@H]3C[C@@H]3c3cc4c(cnn4CC(F)(F)F)cc3F)c3nccn3n2)c(=O)[nH]1` [Example 595, 5-(8-((1S,2S)-2-(5-fluoro-1-(2,2,2-trifluoroethyl)-1H-indazol-6-yl)cyclopropyl)imidazo[1,2-b]pyridazin-6-yl)pyrimidine-2,4(1H,3H)-dione], for which the half-inhibitory concentration (IC50) on CD73 [1] stood at 1.27 nM. On CD73 [2], this molecule registered an EC50 of 0.52 nM.

`O=c1[nH]cc(-c2cc([C@H]3C[C@@H]3c3cc(F)c4cnn(CC(F)(F)F)c4c3)c3nccn3n2)c(=O)[nH]1` [Example 596, 5-(8-((1S,2S)-2-(4-fluoro-1-(2,2,2-trifluoroethyl)-1H-indazol-6-yl)cyclopropyl)imidazo[1,2-b]pyridazin-6-yl)pyrimidine-2,4(1H,3H)-dione]: the 50% inhibitory concentration (IC50) at CD73 [1] is 0.7 nM. Also, the midpoint of the response at CD73 [2], the EC50, lay at 0.14 nM.
